# Legend:
# Assay in all cases: radiometric filter-binding kinase assay, Kinase HotSpot
# Details in all cases: compound 0.5 µM; ATP 10 µM
# TXK (human) = TXK (human) (UniProt P42681)
# SRPK1 (human) = SRPK1 (human) (UniProt Q96SB4)
# CAMK2D (human) = CAMK2D (human) (UniProt Q13557)
# ACVR1B (human) = ACVR1B (human) (UniProt P36896)
# NEK2 (human) = NEK2 (human) (UniProt P51955)
# ROCK1 (human) = ROCK1 (human) (UniProt Q13464)
# CHEK1 (human) = CHEK1 (human) (UniProt O14757)
# EPHB4 (human) = EPHB4 (human) (UniProt P54760)
# MAPK14 (human) = MAPK14 (human) (UniProt Q16539)
# MKNK2 (human) = MKNK2 (human) (UniProt Q9HBH9)
# OXSR1 (human) = OXSR1 (human) (UniProt O95747)
# CDK2 CCNE1 (human) = CDK2 CCNE1 (human) (UniProt P24941+P24864)
# TTK (human) = TTK (human) (UniProt P33981)
# MAP4K2 (human) = MAP4K2 (human) (UniProt Q12851)
# DAPK2 (human) = DAPK2 (human) (UniProt Q9UIK4)
# JAK2 JH1 JH2 (human) = JAK2 JH1 JH2 (human) (UniProt O60674)
# AURKC (human) = AURKC (human) (UniProt Q9UQB9)
# CLK1 (human) = CLK1 (human) (UniProt P49759)
# LCK (human) = LCK (human) (UniProt P06239)
# DYRK1A (human) = DYRK1A (human) (UniProt Q13627)
# PLK1 (human) = PLK1 (human) (UniProt P53350)
# RET (human) = RET (human) (UniProt P07949)
# CAMKK2 (human) = CAMKK2 (human) (UniProt Q96RR4)
# AXL (human) = AXL (human) (UniProt P30530)
# MAPKAPK2 (human) = MAPKAPK2 (human) (UniProt P49137)
# ERBB2 (human) = ERBB2 (human) (UniProt P04626)
# MAP3K14 (human) = MAP3K14 (human) (UniProt Q99558)
# PDGFRB (human) = PDGFRB (human) (UniProt P09619)
# [1] = target: JAK1 JH1 catalytic (human) (UniProt P23458)
# CAMK2B (human) = CAMK2B (human) (UniProt Q13554)
# EPHA4 (human) = EPHA4 (human) (UniProt P54764)
# LIMK1 (human) = LIMK1 (human) (UniProt P53667)
# FGFR2 (human) = FGFR2 (human) (UniProt P21802)
# FRK (human) = FRK (human) (UniProt P42685)
# EPHA5 (human) = EPHA5 (human) (UniProt P54756)
# AURKA (human) = AURKA (human) (UniProt O14965)
# ABL1 (human) = ABL1 (human) (UniProt P00519)
# PAK2 (human) = PAK2 (human) (UniProt Q13177)
# KIT (human) = KIT (human) (UniProt P10721)
# EGFR (human) = EGFR (human) (UniProt P00533)
# PASK (human) = PASK (human) (UniProt Q96RG2)
# CSNK2A1 (human) = CSNK2A1 (human) (UniProt P68400)
# Chain of KIT (human) (P10721 whole entry, looked up): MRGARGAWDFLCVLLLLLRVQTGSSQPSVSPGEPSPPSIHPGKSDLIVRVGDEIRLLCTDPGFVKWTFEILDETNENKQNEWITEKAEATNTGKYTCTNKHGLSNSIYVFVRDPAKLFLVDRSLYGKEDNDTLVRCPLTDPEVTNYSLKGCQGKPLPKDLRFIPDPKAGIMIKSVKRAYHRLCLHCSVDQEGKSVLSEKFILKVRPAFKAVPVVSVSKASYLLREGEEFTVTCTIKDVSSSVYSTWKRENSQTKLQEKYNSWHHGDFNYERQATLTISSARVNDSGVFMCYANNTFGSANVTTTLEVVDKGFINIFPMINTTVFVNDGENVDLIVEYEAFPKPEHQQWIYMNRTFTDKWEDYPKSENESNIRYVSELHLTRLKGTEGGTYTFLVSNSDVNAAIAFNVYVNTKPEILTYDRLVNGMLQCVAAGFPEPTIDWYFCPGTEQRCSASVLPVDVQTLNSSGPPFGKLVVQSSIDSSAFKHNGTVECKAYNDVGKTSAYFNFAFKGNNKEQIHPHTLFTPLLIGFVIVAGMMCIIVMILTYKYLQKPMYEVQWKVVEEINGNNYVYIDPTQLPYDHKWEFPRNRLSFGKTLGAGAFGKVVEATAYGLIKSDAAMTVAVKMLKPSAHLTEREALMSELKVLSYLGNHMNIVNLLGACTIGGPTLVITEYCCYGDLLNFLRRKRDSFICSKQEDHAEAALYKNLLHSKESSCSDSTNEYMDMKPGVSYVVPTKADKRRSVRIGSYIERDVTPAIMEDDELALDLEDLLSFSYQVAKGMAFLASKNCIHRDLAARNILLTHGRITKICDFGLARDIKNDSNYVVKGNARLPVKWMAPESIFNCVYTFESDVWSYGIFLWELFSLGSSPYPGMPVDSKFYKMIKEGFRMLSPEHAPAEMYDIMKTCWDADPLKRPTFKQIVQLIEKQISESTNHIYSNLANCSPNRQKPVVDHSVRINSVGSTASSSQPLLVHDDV
# Chain of ERBB2 (human) (P04626 whole entry, looked up): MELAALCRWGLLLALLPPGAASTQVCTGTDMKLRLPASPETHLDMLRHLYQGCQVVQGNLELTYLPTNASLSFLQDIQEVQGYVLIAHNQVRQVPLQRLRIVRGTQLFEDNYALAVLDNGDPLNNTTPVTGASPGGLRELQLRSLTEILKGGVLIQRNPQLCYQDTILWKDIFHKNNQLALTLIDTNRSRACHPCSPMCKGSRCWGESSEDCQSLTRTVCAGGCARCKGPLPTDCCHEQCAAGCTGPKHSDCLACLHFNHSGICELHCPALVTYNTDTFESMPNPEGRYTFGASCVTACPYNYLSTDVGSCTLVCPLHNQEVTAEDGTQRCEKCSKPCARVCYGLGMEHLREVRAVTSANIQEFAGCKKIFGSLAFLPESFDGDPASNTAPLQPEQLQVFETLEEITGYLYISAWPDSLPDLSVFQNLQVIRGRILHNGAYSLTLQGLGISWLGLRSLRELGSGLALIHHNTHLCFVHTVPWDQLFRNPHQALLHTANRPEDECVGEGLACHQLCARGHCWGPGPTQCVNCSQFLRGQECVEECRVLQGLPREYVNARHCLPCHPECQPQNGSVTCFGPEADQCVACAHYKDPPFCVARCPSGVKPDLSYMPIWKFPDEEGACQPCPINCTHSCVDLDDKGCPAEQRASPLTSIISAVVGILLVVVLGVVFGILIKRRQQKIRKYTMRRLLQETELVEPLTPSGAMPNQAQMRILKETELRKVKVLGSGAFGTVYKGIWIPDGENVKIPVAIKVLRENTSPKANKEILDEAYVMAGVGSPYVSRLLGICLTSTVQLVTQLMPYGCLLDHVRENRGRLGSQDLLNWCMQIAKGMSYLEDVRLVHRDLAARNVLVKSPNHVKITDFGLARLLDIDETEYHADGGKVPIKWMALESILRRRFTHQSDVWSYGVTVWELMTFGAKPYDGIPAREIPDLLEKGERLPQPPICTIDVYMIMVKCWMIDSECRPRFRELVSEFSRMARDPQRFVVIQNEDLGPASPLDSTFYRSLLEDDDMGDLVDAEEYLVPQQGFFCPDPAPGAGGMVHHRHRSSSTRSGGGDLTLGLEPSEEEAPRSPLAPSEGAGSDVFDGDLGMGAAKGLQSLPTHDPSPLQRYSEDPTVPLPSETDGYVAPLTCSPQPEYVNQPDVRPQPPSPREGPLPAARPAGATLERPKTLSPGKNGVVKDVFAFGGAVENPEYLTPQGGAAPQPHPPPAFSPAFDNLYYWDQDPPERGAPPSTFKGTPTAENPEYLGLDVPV
# Chain of FGFR2 (human) (P21802 whole entry, looked up): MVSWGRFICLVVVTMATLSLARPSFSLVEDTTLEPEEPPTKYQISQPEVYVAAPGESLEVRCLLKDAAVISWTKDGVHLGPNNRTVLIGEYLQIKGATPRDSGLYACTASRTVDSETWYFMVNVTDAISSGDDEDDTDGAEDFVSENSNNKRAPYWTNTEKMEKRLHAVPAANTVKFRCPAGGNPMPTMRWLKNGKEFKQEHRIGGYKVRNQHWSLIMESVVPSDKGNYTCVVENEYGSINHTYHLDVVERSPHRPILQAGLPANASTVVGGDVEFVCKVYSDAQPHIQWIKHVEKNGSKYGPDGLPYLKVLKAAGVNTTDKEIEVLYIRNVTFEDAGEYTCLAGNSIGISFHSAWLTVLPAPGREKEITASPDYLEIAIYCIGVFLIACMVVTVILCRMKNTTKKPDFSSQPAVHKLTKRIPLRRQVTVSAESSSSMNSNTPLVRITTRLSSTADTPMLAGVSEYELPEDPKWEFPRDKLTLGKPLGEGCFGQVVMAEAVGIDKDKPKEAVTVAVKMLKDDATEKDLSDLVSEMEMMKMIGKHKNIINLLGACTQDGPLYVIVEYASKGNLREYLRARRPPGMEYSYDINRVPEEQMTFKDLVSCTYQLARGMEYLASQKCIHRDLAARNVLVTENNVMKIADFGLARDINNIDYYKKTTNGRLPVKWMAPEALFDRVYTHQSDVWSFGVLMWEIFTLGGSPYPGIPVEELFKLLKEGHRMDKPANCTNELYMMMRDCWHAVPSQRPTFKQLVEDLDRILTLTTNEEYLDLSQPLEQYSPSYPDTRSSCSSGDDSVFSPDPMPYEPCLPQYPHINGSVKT
# Chain of CAMKK2 (human) (Q96RR4 whole entry, looked up): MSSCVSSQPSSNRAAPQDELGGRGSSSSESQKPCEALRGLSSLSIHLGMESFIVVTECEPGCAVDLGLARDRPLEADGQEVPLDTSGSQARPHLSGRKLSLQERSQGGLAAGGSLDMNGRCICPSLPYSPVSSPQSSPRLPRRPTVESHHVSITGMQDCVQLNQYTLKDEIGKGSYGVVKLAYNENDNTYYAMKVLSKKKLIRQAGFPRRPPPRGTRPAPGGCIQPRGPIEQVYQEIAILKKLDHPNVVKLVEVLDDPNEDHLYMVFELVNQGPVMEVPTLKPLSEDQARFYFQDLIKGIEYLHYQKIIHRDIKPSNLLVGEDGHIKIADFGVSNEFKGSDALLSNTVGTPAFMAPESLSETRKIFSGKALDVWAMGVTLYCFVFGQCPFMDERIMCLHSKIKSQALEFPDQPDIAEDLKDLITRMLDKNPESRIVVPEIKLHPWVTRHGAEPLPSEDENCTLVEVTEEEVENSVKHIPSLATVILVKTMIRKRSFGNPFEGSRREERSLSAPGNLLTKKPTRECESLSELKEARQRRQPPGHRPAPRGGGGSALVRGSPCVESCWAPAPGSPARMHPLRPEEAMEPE
# Chain of MAP3K14 (human) (Q99558 whole entry, looked up): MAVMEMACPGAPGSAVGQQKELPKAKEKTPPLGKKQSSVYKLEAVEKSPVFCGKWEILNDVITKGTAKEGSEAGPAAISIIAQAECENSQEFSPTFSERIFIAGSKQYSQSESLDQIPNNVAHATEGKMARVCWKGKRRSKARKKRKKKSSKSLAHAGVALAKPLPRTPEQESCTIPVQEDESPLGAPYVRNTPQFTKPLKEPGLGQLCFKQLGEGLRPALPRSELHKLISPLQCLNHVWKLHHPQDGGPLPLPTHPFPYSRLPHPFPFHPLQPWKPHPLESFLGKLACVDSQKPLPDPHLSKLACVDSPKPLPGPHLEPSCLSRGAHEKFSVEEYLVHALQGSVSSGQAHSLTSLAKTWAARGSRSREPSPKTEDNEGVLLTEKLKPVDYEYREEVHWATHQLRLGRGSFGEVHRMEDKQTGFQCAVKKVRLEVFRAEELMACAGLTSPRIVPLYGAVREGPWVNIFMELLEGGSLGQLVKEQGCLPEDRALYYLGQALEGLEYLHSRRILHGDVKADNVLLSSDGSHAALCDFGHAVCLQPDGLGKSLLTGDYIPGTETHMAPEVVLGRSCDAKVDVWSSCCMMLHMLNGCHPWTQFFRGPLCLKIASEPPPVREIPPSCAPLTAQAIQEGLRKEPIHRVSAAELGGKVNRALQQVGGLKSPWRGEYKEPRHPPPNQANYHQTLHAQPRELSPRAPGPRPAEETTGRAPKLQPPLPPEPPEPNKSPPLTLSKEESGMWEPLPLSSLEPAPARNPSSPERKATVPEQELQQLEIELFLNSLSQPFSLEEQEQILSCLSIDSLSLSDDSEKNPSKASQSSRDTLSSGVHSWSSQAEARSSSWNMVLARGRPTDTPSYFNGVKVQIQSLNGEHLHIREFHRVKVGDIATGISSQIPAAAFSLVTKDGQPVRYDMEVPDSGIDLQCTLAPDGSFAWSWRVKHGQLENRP
# Chain of NEK2 (human) (P51955 whole entry, looked up): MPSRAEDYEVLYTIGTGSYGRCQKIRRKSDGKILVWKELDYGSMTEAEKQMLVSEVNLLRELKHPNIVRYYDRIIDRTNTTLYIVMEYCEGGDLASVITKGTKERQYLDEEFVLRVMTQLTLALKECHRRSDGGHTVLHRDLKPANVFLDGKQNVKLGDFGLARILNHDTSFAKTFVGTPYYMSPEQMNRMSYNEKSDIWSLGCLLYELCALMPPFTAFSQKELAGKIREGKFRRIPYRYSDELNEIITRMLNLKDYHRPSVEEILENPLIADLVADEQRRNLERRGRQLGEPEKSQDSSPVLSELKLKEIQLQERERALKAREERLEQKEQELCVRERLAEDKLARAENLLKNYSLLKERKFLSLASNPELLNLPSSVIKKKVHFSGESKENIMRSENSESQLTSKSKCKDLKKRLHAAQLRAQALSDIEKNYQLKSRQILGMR
smiles,measurement,setting,value
CCCCc1c(-c2ccc(OC)cc2)[nH]c2nccnc12,residual activity,TXK (human),72.7%
same,residual activity,SRPK1 (human),100%
same,residual activity,CAMK2D (human),93.3%
same,residual activity,ACVR1B (human),112%
same,residual activity,NEK2 (human),115%
same,residual activity,ROCK1 (human),99.9%
same,residual activity,CHEK1 (human),93.1%
same,residual activity,EPHB4 (human),89.5%
same,residual activity,MAPK14 (human),112%
same,residual activity,MKNK2 (human),99.3%
same,residual activity,OXSR1 (human),102%
same,residual activity,CDK2 CCNE1 (human),42.1%
same,residual activity,TTK (human),87.9%
same,residual activity,MAP4K2 (human),65.1%
same,residual activity,DAPK2 (human),101%
same,residual activity,JAK2 JH1 JH2 (human),77.9%
same,residual activity,AURKC (human),55.8%
same,residual activity,CLK1 (human),102%
same,residual activity,LCK (human),85%
same,residual activity,DYRK1A (human),102%
same,residual activity,PLK1 (human),104%
same,residual activity,RET (human),56.3%
same,residual activity,CAMKK2 (human),79.1%
same,residual activity,AXL (human),110%
same,residual activity,MAPKAPK2 (human),90.2%
same,residual activity,ERBB2 (human),96.4%
same,residual activity,MAP3K14 (human),105%
same,residual activity,PDGFRB (human),95.9%
same,residual activity,[1],67.1%
same,residual activity,CAMK2B (human),97.6%
same,residual activity,EPHA4 (human),85.5%
same,residual activity,LIMK1 (human),65.3%
same,residual activity,FGFR2 (human),89.5%
same,residual activity,FRK (human),86.5%
same,residual activity,EPHA5 (human),91.6%
same,residual activity,AURKA (human),25.5%
same,residual activity,ABL1 (human),83.4%
same,residual activity,PAK2 (human),97.5%
same,residual activity,KIT (human),82.9%
same,residual activity,EGFR (human),103%
same,residual activity,PASK (human),97.6%
same,residual activity,CSNK2A1 (human),97.8%
N#C/C(=C\c1ccc(O)c(O)c1)C(=O)NCc1ccccc1,residual activity,TXK (human),104%
same,residual activity,SRPK1 (human),104%
same,residual activity,CAMK2D (human),104%
same,residual activity,ACVR1B (human),98%
same,residual activity,NEK2 (human),102%
same,residual activity,ROCK1 (human),99.7%
same,residual activity,CHEK1 (human),89.2%
same,residual activity,EPHB4 (human),88.2%
same,residual activity,MAPK14 (human),108%
same,residual activity,MKNK2 (human),87.9%
same,residual activity,OXSR1 (human),101%
same,residual activity,CDK2 CCNE1 (human),96.4%
same,residual activity,TTK (human),103%
same,residual activity,MAP4K2 (human),103%
same,residual activity,DAPK2 (human),98.5%
same,residual activity,JAK2 JH1 JH2 (human),98.1%
same,residual activity,AURKC (human),95.5%
same,residual activity,CLK1 (human),98.6%
same,residual activity,LCK (human),95.7%
same,residual activity,DYRK1A (human),102%
same,residual activity,PLK1 (human),97.3%
same,residual activity,RET (human),108%
same,residual activity,CAMKK2 (human),97.4%
same,residual activity,AXL (human),95.1%
same,residual activity,MAPKAPK2 (human),101%
same,residual activity,ERBB2 (human),97.6%
same,residual activity,MAP3K14 (human),109%
same,residual activity,PDGFRB (human),100%
same,residual activity,[1],93.8%
same,residual activity,CAMK2B (human),102%
same,residual activity,EPHA4 (human),99.5%
same,residual activity,LIMK1 (human),97%
same,residual activity,FGFR2 (human),98.1%
same,residual activity,FRK (human),97.4%
same,residual activity,EPHA5 (human),103%
same,residual activity,AURKA (human),92.2%
same,residual activity,ABL1 (human),100%
same,residual activity,PAK2 (human),76.8%
same,residual activity,KIT (human),93.9%
same,residual activity,EGFR (human),72.4%
same,residual activity,PASK (human),95.1%
same,residual activity,CSNK2A1 (human),86.6%
COc1cc2ncnc(Nc3ccc(OCc4ccccc4)cc3)c2cc1OC,residual activity,TXK (human),99.4%
same,residual activity,SRPK1 (human),105%
same,residual activity,CAMK2D (human),95.8%
same,residual activity,ACVR1B (human),102%
same,residual activity,NEK2 (human),107%
same,residual activity,ROCK1 (human),96.6%
same,residual activity,CHEK1 (human),101%
same,residual activity,EPHB4 (human),94.6%
same,residual activity,MAPK14 (human),101%
same,residual activity,MKNK2 (human),88.1%
same,residual activity,OXSR1 (human),110%
same,residual activity,CDK2 CCNE1 (human),96.7%
same,residual activity,TTK (human),96.8%
same,residual activity,MAP4K2 (human),114%
same,residual activity,DAPK2 (human),99.9%
same,residual activity,JAK2 JH1 JH2 (human),94.3%
same,residual activity,AURKC (human),84.8%
same,residual activity,CLK1 (human),111%
same,residual activity,LCK (human),42.2%
same,residual activity,DYRK1A (human),105%
same,residual activity,PLK1 (human),101%
same,residual activity,RET (human),89.1%
same,residual activity,CAMKK2 (human),99.7%
same,residual activity,AXL (human),94.8%
same,residual activity,MAPKAPK2 (human),106%
same,residual activity,ERBB2 (human),42.6%
same,residual activity,MAP3K14 (human),84.4%
same,residual activity,PDGFRB (human),93%
same,residual activity,[1],101%
same,residual activity,CAMK2B (human),105%
same,residual activity,EPHA4 (human),98.5%
same,residual activity,LIMK1 (human),95.4%
same,residual activity,FGFR2 (human),103%
same,residual activity,FRK (human),104%
same,residual activity,EPHA5 (human),105%
same,residual activity,AURKA (human),91.3%
same,residual activity,ABL1 (human),98%
same,residual activity,PAK2 (human),102%
same,residual activity,KIT (human),63%
same,residual activity,EGFR (human),21.3%
same,residual activity,PASK (human),98.6%
same,residual activity,CSNK2A1 (human),95.8%

# Reference: the kinase profiling compilation of Christmann-Franck et al. (2016)
